Laboratory results as given in patent publication US20100216779A1 (GLAXOSMITHKLINE LLC, priority 2007, published 2010).

What was measured:
Format in all cases: cell-based
[1] = biological target: T1, IR (NIH-3T3 cells over expressing human IGF-1R or IR) (Homo sapiens, UniProt P06213); assay: IR cellular autophosphorylation (DELFIA); conditions: NIH-3T3 cells over expressing IR, insulin stimulated
T1 construct: expressed in transfected cells; host or cells: NIH-3T3 (mouse fibroblasts)
Experimental: (§1) D. IGF-1R and IR Cellular Autophosphorylation (DELFIA)
(§2) NIH-3T3 cells over expressing human IGF-1R or IR were plated in 96-well plates (10,000 cells/well) in culture media containing 10% fetal bovine serum and incubated at 37° C. in a 5% CO2 incubator. Twenty four hours post-plating, cells were treated with different concentrations of test compounds ranging from 30 uM to 1.5 nM. Two hours after compound addition, cells were stimulated with either human IGF-1 (30 ng/mL) or insulin (3 ug/mL) for 15 minutes. Cell lysates are analyzed for phosphorylated receptors using dissociation enhanced lanthanide fluor-immuno assay (DELFIA) with anti-IGF-1R (MAB391, R&D Systems, Minneapolis, Minn.) or anti-IR[…](sc-711, Santa Cruz Biotechnology, Santa Cruz, Calif.) capture antibody and europium-labeled anti-pTyr antibody (Eu-N1 PT66, Perkin Elmer, Waltham, Mass.) for detection. The fluorescence signal for cells treated with compounds was expressed as percent relative to 100% stimulation (IGF-1 or insulin stimulated signal). […]

[2] = test system: COLO205 (colon); assay: Inhibition of cell proliferation, CellTiter-Glo, COLO205; conditions: Homo sapiens, COLO 205, 72 h
Experimental: C. Inhibition of Cell Proliferation
Cell proliferation was measured by either CellTiter-Glo (measures cellular ATP level as a surrogate for total cell number) or by InCell analyzer (counts number of nuclei as a measure of cell number). For CellTiter-Glo assay, exponentially growing cell lines of different tumor origins, cultured in appropriate media containing 10% fetal bovine serum at 37° C. in a 5% CO2 incubator, were plated at low density (less than 2000 cells/well) in 96-well plates. […] Several wells were left untreated as a control. Seventy two hours post-treatment, cell numbers were determined using 50-100 ul per well of CellTiter-Glo (Promega #G7573). Plates were incubated at 37° C. for 30 minutes and the chemiluminescent signal was read on the Victor V or Envison 2100 reader. […]

[3] = biological target: T2, human IGF-1R (NIH-3T3 cells over expressing human IGF-1R) (Homo sapiens, UniProt P08069); assay: IGF-1R cellular autophosphorylation (DELFIA); conditions: IGF-1 stimulated
T2 construct: expressed in transfected cells; host or cells: NIH-3T3 (mouse fibroblasts)
Experimental: as §1, §2

T1 sequence (P06213 28-1382): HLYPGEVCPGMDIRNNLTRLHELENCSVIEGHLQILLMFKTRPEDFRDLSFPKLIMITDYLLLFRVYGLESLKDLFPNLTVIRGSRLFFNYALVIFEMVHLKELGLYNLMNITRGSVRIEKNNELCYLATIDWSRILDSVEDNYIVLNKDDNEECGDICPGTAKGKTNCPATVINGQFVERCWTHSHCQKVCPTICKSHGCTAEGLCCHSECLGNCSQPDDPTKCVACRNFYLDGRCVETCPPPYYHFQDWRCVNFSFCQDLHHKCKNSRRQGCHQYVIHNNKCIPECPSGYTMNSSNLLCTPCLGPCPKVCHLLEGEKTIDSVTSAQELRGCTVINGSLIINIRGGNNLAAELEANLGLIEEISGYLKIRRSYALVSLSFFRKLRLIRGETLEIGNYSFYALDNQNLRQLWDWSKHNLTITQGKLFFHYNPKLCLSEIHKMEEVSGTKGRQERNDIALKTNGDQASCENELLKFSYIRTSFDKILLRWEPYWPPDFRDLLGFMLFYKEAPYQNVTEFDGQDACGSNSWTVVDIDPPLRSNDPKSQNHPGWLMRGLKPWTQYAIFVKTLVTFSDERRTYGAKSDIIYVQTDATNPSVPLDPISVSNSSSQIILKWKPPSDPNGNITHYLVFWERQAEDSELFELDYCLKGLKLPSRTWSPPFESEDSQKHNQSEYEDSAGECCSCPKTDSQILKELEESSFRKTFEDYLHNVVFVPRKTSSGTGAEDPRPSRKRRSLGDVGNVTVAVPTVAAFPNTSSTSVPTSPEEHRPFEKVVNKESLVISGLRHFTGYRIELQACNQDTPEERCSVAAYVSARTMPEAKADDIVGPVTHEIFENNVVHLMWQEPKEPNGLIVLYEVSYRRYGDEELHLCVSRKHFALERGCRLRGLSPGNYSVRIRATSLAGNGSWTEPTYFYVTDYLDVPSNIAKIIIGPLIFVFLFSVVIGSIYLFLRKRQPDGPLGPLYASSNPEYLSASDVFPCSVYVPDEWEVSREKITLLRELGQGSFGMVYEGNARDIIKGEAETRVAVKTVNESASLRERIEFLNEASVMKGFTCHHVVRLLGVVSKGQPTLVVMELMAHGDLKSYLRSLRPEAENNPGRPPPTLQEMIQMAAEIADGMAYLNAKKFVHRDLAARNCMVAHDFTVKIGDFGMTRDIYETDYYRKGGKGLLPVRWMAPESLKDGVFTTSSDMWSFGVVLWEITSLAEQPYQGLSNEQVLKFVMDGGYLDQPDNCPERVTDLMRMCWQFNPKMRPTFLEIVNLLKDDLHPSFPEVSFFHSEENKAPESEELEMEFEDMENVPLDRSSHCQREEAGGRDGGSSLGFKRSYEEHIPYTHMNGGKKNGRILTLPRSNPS
T2 sequence (P08069 31-1367): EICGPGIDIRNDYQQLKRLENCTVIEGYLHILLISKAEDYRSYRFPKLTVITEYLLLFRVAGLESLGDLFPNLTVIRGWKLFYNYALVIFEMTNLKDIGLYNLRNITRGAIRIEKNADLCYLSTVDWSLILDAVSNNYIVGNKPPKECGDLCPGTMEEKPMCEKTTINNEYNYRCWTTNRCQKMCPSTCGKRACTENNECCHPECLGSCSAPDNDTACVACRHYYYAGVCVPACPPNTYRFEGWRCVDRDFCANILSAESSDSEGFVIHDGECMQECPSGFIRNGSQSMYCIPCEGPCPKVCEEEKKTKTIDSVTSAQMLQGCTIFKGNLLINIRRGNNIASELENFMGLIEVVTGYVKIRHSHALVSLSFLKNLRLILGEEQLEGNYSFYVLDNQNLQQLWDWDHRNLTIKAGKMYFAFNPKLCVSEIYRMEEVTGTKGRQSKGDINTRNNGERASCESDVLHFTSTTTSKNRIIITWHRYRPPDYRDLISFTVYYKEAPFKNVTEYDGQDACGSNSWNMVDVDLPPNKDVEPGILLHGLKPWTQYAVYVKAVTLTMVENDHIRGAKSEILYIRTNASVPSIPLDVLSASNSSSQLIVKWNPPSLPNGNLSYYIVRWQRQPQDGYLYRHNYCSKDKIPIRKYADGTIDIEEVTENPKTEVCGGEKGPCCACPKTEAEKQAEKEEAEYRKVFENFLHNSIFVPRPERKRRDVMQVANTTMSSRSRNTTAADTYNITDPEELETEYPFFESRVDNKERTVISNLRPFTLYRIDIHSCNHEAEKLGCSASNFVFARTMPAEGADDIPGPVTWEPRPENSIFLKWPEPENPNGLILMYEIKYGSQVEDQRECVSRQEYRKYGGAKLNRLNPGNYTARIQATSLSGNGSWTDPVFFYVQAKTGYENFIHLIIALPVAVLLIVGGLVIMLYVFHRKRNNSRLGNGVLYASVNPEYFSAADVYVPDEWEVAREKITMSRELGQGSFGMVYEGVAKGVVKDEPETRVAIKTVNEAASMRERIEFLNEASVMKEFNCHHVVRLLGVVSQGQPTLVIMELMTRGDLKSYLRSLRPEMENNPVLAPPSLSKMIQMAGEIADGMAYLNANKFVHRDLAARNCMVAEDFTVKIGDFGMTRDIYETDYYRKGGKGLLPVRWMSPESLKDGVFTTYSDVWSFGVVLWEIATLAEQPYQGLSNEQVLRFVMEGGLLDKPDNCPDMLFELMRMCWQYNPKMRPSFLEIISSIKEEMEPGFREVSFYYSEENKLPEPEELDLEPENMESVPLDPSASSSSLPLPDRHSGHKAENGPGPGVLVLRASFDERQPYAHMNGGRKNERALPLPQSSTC

## COc1ccn2c(-c3ccnc(Nc4ccc(N5CCC(N6CCCCC6)CC5)cc4OC)n3)c(-c3ccc(OC)c(C(=O)Nc4c(F)cccc4F)c3)nc2c1 [Example 5, 5-[3-(2-{[4-(1,4′-bipiperidin-1′-yl)-2-(methyloxy)phenyl]amino}-4-pyrimidinyl)-7-(methyloxy)imidazo[1,2-a]pyridin-2-yl]-N-(2,6-difluorophenyl)-2-(methyloxy)benzamide]
[1]
  IC50: < 100 nM
[2]
  IC50: > 1000 nM
[3]
  IC50: < 100 nM

## Cn1cc(-c2cccc(Nc3nccc(-c4c(-c5cccc(C(=O)Nc6c(F)cccc6F)c5)nc5ccccn45)n3)c2)cn1 [Example 11, N-(2,6-difluorophenyl)-3-[3-(2-{[3-(1-methyl-1H-pyrazol-4-yl)phenyl]amino}-4-pyrimidinyl)imidazo[1,2-a]pyridin-2-yl]benzamide]
[1]
  IC50: 100 to 500 nM
[2]
  IC50: 250 to 1000 nM
[3]
  IC50: 100 to 500 nM

## COc1ccn2c(-c3ccnc(Nc4cccc(OCCN(C)C)c4)n3)c(-c3cccc(C(=O)Nc4cccc(F)c4F)c3)nc2c1 [Example 15, N-(2,3-difluorophenyl)-3-[3-{2-[(3-{[2-(dimethylamino)ethyl]oxy}phenyl)amino]-4-pyrimidinyl}-7-(methyloxy)imidazo[1,2-a]pyridin-2-yl]benzamide]
[1]
  IC50: > 500 nM
[2]
  IC50: < 250 nM
[3]
  IC50: 100 to 500 nM

## COc1ccn2c(-c3ccnc(Nc4cccc(OCCN(C)C)c4)n3)c(-c3cccc(C(=O)Nc4ccc(F)cc4F)c3)nc2c1 [Example 16, N-(2,4-difluorophenyl)-3-[3-{2-[(3-{[2-(dimethylamino)ethyl]oxy}phenyl)amino]-4-pyrimidinyl}-7-(methyloxy)imidazo[1,2-a]pyridin-2-yl]benzamide]
[1]
  IC50: < 100 nM
[2]
  IC50: 250 to 1000 nM
[3]
  IC50: < 100 nM

## COc1ccn2c(-c3ccnc(Nc4cccc(OCCN(C)C)c4)n3)c(-c3cccc(C(=O)Nc4c(F)cccc4F)c3)nc2c1 [Example 17, N-(2,6-difluorophenyl)-3-[3-{2-[(3-{[2-(dimethylamino)ethyl]oxy}phenyl)amino]-4-pyrimidinyl}-7-(methyloxy)imidazo[1,2-a]pyridin-2-yl]benzamide]
[1]
  IC50: > 500 nM
[2]
  IC50: 250 to 1000 nM
[3]
  IC50: 100 to 500 nM

## COc1cc(N2CCC(N3CCCCC3)CC2)ccc1Nc1nccc(-c2c(-c3cccc(C(=O)Nc4c(F)cccc4F)c3)nc3cc(C)ccn23)n1 [Example 18, 3-[3-(2-{[4-(1,4′-bipiperidin-1′-yl)-2-(methyloxy)phenyl]amino}-4-pyrimidinyl)-7-methylimidazo[1,2-a]pyridin-2-yl]-N-(2,6-difluorophenyl)benzamide]
[1]
  IC50: 100 to 500 nM
[2]
  IC50: 250 to 1000 nM
[3]
  IC50: < 100 nM

## COc1cc(N2CCC(N3CCCCC3)CC2)ccc1Nc1nccc(-c2c(-c3ccc(OC)c(C(=O)Nc4c(F)cccc4F)c3)nc3ccccn23)n1 [Example 23, 5-[3-(2-{[4-(1,4′-bipiperidin-1-yl)-2-(methyloxy)phenyl]amino}-4-pyrimidinyl)imidazo[1,2-a]pyridin-2-yl]-N-(2,6-difluorophenyl)-2-(methyloxy)benzamide]
[1]
  IC50: < 100 nM
[2]
  IC50: < 250 nM
[3]
  IC50: < 100 nM

## COc1cc(-c2nnc(CN(C)C)o2)ccc1Nc1nccc(-c2c(-c3ccc(OC)c(C(=O)Nc4c(F)cccc4F)c3)nc3ccccn23)n1 [Example 26, N-(2,6-difluorophenyl)-5-[3-(2-{[4-{5-[(dimethylamino)methyl]-1,3,4-oxadiazol-2-yl}-2-(methyloxy)phenyl]amino}-4-pyrimidinyl)imidazo[1,2-a]pyridin-2-yl]-2-(methyloxy)benzamide]
[1]
  IC50: > 500 nM
[2]
  IC50: 250 to 1000 nM
[3]
  IC50: < 100 nM

## CC(C)COc1cc(N2CCC(N3CCCCC3)CC2)ccc1Nc1nccc(-c2c(-c3cccc(C(=O)Nc4c(F)cccc4F)c3)nc3ccccn23)n1 [Example 32, 3-{3-[2-({4-(1,4′-bipiperidin-1′-yl)-2-[(2-methylpropyl)oxy]phenyl}amino)-4-pyrimidinyl]imidazo[1,2-a]pyridin-2-yl}-N-(2,6-difluorophenyl)benzamide]
[1]
  IC50: > 500 nM
[2]
  IC50: 250 to 1000 nM
[3]
  IC50: > 500 nM

## CCCOc1cc(N2CCC(N3CCCCC3)CC2)ccc1Nc1nccc(-c2c(-c3cccc(C(=O)Nc4c(F)cccc4F)c3)nc3ccccn23)n1 [Example 33, 3-[3-(2-{[4-(1,4′-bipiperidin-1′-yl)-2-(propyloxy)phenyl]amino}-4-pyrimidinyl)imidazol[1,2-a]pyridin-2-yl]-N-(2,6-difluorophenyl)benzamide]
[1]
  IC50: 100 to 500 nM
[2]
  IC50: 250 to 1000 nM
[3]
  IC50: < 100 nM

## CCOc1cc(N2CCC(N3CCCCC3)CC2)ccc1Nc1nccc(-c2c(-c3cccc(C(=O)Nc4c(F)cccc4F)c3)nc3ccccn23)n1 [Example 34, 3-[3-(2-{[4-(1,4′-bipiperidin-1′-yl)-2-(ethyloxy)phenyl]amino}-4-pyrimidinyl)imidazo[1,2-a]pyridin-2-yl]-N-(2,6-difluorophenyl)benzamide]
[1]
  IC50: 100 to 500 nM
[2]
  IC50: 250 to 1000 nM
[3]
  IC50: < 100 nM

## CC(C)Oc1cc(N2CCC(N3CCCCC3)CC2)ccc1Nc1nccc(-c2c(-c3cccc(C(=O)Nc4c(F)cccc4F)c3)nc3ccccn23)n1 [Example 35, 3-{3-[2-({4-(1,4′-bipiperidin-1′-yl)-2-[(1-methylethyl)oxy]phenyl}amino)-4-pyrimidinyl]imidazo[1,2-a]pyridin-2-yl}-N-(2,6-difluorophenyl)benzamide]
[1]
  IC50: 100 to 500 nM
[2]
  IC50: 250 to 1000 nM
[3]
  IC50: 100 to 500 nM

## COc1cc(N2CCC(CN3CCCCC3)CC2)ccc1Nc1nccc(-c2c(-c3cccc(C(=O)Nc4c(F)cccc4F)c3)nc3ccccn23)n1 [Example 36, N-(2,6-difluorophenyl)-3-{3-[2-({2-(methyloxy)-4-[4-(1-piperidinylmethyl)-1-piperidinyl]phenyl}amino)-4-pyrimidinyl]imidazo[1,2-a]pyridin-2-yl}benzamide]
[1]
  IC50: < 100 nM
[2]
  IC50: 250 to 1000 nM
[3]
  IC50: < 100 nM

## COc1cc(N2CCC(CN3CCN(C)CC3)CC2)ccc1Nc1nccc(-c2c(-c3cccc(C(=O)Nc4c(F)cccc4F)c3)nc3ccccn23)n1 [Example 37, N-(2,6-difluorophenyl)-3-(3-{2-[(2-(methyloxy)-4-{4-[(4-methyl-1-piperazinyl)methyl]-1-piperidinyl}phenyl)amino]-4-pyrimidinyl}imidazo[1,2-a]pyridin-2-yl)benzamide]
[1]
  IC50: < 100 nM
[2]
  IC50: 250 to 1000 nM
[3]
  IC50: < 100 nM

## COc1ccn2c(-c3ccnc(Nc4ccc(N5CCC(N6CCCCC6)CC5)cc4OC)n3)c(-c3cccc(C(=O)Nc4c(F)cccc4F)c3)nc2c1 [Example 39, 3-[3-(2-{[4-(1,4′-bipiperidin-1′-yl)-2-(methyloxy)phenyl]amino}-4-pyrimidinyl)-7-(methyloxy)imidazo[1,2-a]pyridin-2-yl]-N-(2,6-difluorophenyl)benzamide]
[1]
  IC50: 100 to 500 nM
[2]
  IC50: > 1000 nM
[3]
  IC50: < 100 nM

## CCc1cc(N2CCC(N3CCCCC3)CC2)ccc1Nc1nccc(-c2c(-c3cccc(C(=O)Nc4c(F)cccc4F)c3)nc3ccccn23)n1 [Example 40, 3-[3-(2-{[4-(1,4′-bipiperidin-1′-yl)-2-ethylphenyl]amino}-4-pyrimidinyl)imidazo[1,2-a]pyridin-2-yl]-N-(2,6-difluorophenyl)benzamide]
[1]
  IC50: 100 to 500 nM
[2]
  IC50: 250 to 1000 nM
[3]
  IC50: < 100 nM

## COc1cc(N2CCC(N3CCCCC3)CC2)ccc1Nc1nccc(-c2c(-c3cccc(C(=O)Nc4c(F)cccc4F)c3)nc3c(C)cccn23)n1 [Example 43, 3-[3-(2-{[4-(1,4′-bipiperidin-1-yl)-2-(methyloxy)phenyl]amino}-4-pyrimidinyl)-8-methylimidazo[1,2-a]pyridin-2-yl]-N-(2,6-difluorophenyl)benzamide]
[1]
  IC50: 100 to 500 nM
[2]
  IC50: 250 to 1000 nM
[3]
  IC50: < 100 nM

## COc1cc(N2CCC(N3CCCCC3)CC2)ccc1Nc1nccc(-c2c(-c3cccc(C(=O)Nc4ccc(F)cc4Cl)c3)nc3ccccn23)n1 [Example 44, 3-[3-(2-{[4-(1,4′-bipiperidin-1′-yl)-2-(methyloxy)phenyl]amino}-4-pyrimidinyl)imidazo[1,2-a]pyridin-2-yl]-N-(2-chloro-4-fluorophenyl)benzamide]
[1]
  IC50: 100 to 500 nM
[2]
  IC50: 250 to 1000 nM
[3]
  IC50: < 100 nM

## COc1cc(N2CCC(N3CCCCC3)CC2)ccc1Nc1nccc(-c2c(-c3cccc(C(=O)Nc4ccc(Cl)cc4F)c3)nc3ccccn23)n1 [Example 45, 3-[3-(2-{[4-(1,4′-bipiperidin-1′-yl)-2-(methyloxy)phenyl]amino}-4-pirimidinyl)imidazo[1,2-a]pyridin-2-yl]-N-(4-chloro-2-fluorophenyl)benzamide]
[1]
  IC50: 100 to 500 nM
[2]
  IC50: 250 to 1000 nM
[3]
  IC50: < 100 nM
